Reference: patent publication US20250282728A1, “NITROGEN COMPRISING HETEROCYCLIC DERIVATIVES FOR THE TREATMENT OF DISORDERS ASSOCIATED WITH GPR55 RECEPTOR” (Cerevance, Inc., priority 2022, published 2025)

How the values were obtained:
rat GPR55 = target: T1, rat GPR55 (Rattus norvegicus, UniProt F1MAK4); assay: Ca2+ mobilization assay (FLIPR, Calcium5 dye), rat GPR55; type: cell-based; settings: HEK293 cells co-expressing PK-tagged rat GPR55 and EA-tagged beta-arrestin; intracellular calcium increase
T1 construct: expressed in transfected cells; host or cells: HEK293 (human embryonic kidney) cells
T1 sequence (F1MAK4 1-319): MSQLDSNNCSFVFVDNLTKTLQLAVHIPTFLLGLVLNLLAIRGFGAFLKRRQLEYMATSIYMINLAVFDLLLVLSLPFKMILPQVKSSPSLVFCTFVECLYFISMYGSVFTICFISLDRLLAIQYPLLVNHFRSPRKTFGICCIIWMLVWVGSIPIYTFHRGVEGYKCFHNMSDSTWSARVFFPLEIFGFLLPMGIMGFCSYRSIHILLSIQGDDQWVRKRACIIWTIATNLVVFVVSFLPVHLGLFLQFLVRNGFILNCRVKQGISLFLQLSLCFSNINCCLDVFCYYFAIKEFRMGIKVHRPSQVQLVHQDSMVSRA
Procedure: (§1) This cell-based assay measures the ability of compounds to activate the GPR55 receptor by measuring changes in intracellular calcium levels. HEK293 (human embryonic kidney) cells co-expressing recombinant ProLink (PK) tagged human or rat GPR55 and Enzyme Acceptor (EA) tagged beta-arrestin were seeded into PDL-coated, black-walled clear-bottom 384 well plates in assay buffer (25 mM HEPES, HBSS, 1 mM Probenicid, 0.1% BSA, pH 7.4) containing Calcium5 dye (Molecular Devices). Cells were incubated in suspension with the Calcium5 dye for 1 hour at 37° C., 5% CO2. Dilution series of the compounds in assay buffer were added to the cells in duplicate wells and compound-mediated real-time increases in intracellular calcium concentration were recorded as increased fluorescence using the Molecular Devices FLIPR instrument. Kinetic traces were reduced to a numerical value by subtracting the minimum response from the maximum response.

human GPR55 = target: T2, human GPR55 (Homo sapiens, UniProt Q9Y2T6); assay: Ca2+ mobilization assay (FLIPR, Calcium5 dye), human GPR55; type: cell-based; settings: HEK293 cells co-expressing PK-tagged human GPR55 and EA-tagged beta-arrestin; intracellular calcium increase
T2 construct: expressed in transfected cells; host or cells: HEK293 (human embryonic kidney) cells
T2 sequence (Q9Y2T6 whole entry): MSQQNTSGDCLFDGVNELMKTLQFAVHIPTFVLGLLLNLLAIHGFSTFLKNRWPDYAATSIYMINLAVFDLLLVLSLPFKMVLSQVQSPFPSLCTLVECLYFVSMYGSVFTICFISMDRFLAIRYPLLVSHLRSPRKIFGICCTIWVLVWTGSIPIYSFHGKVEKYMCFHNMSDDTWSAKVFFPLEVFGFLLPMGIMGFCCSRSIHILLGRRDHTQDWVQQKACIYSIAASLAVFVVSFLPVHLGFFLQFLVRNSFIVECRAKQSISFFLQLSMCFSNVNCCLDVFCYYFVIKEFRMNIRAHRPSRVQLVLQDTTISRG
Procedure: as §1

SMILES | EC50 (rat GPR55) [nM] | EC50 (human GPR55) [nM]
C[C@@H](Nc1ccc(-c2cncc(S(C)(=N)=O)c2)cn1)c1ccc(F)cc1 (mixture of isomers) [Example 27, (6′-(((R)-1-(4-fluorophenyl)ethyl)amino)-[3,3′-bipyridin]-5-yl)(imino)(methyl)-λ^6-sulfanone] | ≤ 50 | 
CN=S(C)(=O)c1cncc(-c2ccc(N[C@H](C)c3ccc(F)cc3)nc2)c1 (mixture of isomers) [Example 30, (6′-(((R)-1-(4-fluorophenyl)ethyl)amino)-[3,3′-bipyridin]-5-yl)(methyl)(methylimino)-λ6-sulfanone] | ≤ 50 | 
C[C@@H](Nc1cnc(-c2cncc(C(O)C(F)(F)F)c2)cn1)c1ccc(F)cc1 (mixture of isomers) [Example 32, 2,2,2-trifluoro-1-(5-(5-(((R)-1-(4-fluorophenyl)ethyl)amino)pyrazin-2-yl)pyridin-3-yl)ethan-1-ol] | ≤ 50 | ≤ 200
CC(O)c1cncc(-c2ccc(N[C@H](C)c3ccc(F)cc3)nc2)c1 (single isomer, unassigned) [Example 16a] | ≤ 50 | ≤ 1000
CC(O)c1cncc(-c2ccc(N[C@H](C)c3ccc(F)cc3)nc2)c1 (single isomer, unassigned) [Example 16b] | ≤ 200 | ≤ 50
C[C@@H](Nc1ccc(-c2cncc(S(C)(=N)=O)c2)cn1)c1ccc(F)cc1 (single isomer, unassigned) [Example 27a] | ≤ 200 | 
C[C@@H](Nc1ccc(-c2cncc(S(C)(=N)=O)c2)cn1)c1ccc(F)cc1 (single isomer, unassigned) [Example 27b] | ≤ 1000 | 
CC(Nc1cc(F)c(-c2cncc(S(C)(=O)=O)c2)cn1)c1ccc(F)cc1 (single isomer, unassigned) [Example 29a, 4-fluoro-N-(1-(4-fluorophenyl)ethyl)-5′-(methylsulfonyl)-[3,3′-bipyridin]-6-amine] | ≤ 1000 | ≤ 50
CC(Nc1cc(F)c(-c2cncc(S(C)(=O)=O)c2)cn1)c1ccc(F)cc1 (single isomer, unassigned) [Example 29b, 4-fluoro-N-(1-(4-fluorophenyl)ethyl)-5′-(methylsulfonyl)-[3,3′-bipyridin]-6-amine] | ≤ 5000 | ≤ 1000
CN=S(C)(=O)c1cncc(-c2ccc(N[C@H](C)c3ccc(F)cc3)nc2)c1 (single isomer, unassigned) [Example 30a] | ≤ 50 | 
CN=S(C)(=O)c1cncc(-c2ccc(N[C@H](C)c3ccc(F)cc3)nc2)c1 (single isomer, unassigned) [Example 30b] | ≤ 1000 | 
C[C@@H](Nc1cnc(-c2cncc(C(O)C(F)(F)F)c2)cn1)c1ccc(F)cc1 (single isomer, unassigned) [Example 32a] | ≤ 50 | ≤ 50
C[C@@H](Nc1cnc(-c2cncc(C(O)C(F)(F)F)c2)cn1)c1ccc(F)cc1 (single isomer, unassigned) [Example 32b] | ≤ 1000 | ≤ 50
Cc1cncc(-c2ccc(NC(C)c3ccc(Cl)cc3)nc2)c1 (single isomer, unassigned) [Example 46a, N-(1-(4-chlorophenyl)ethyl)-5′-methyl-[3,3′-bipyridin]-6-amine] | ≤ 200 | ≤ 1000
C[C@@H](Nc1cnc(-c2cncc(C(O)C(F)F)c2)cn1)c1ccc(F)cc1 (single isomer, unassigned) [Example 54a] | ≤ 200 | ≤ 1000
C[C@@H](Nc1cnc(-c2cncc(C(O)C(F)F)c2)cn1)c1ccc(F)cc1 (single isomer, unassigned) [Example 54b] | ≤ 1000 | ≤ 1000
Cc1cc(C(C)Nc2ncc(-c3ccc4oc(=O)n(C)c4c3)nn2)ccc1F (single isomer, unassigned) [Example 77a, 5-(3-((1-(4-fluoro-3-methylphenyl)ethyl)amino)-1,2,4-triazin-6-yl)-3-methylbenzo[d]oxazol-2(3H)-one] | ≤ 1000 | ≤ 1000
CC(Nc1ncc(-c2ccc3oc(=O)n(C)c3c2)nn1)c1ccc(Cl)c(Cl)c1 (single isomer, unassigned) [Example 78a, 5-(3-((1-(3,4-dichlorophenyl)ethyl)amino)-1,2,4-triazin-6-yl)-3-methylbenzo[d]oxazol-2(3H)-one] | ≤ 1000 | ≤ 1000
Cc1cncc(-c2ccc(NC(C)c3ccc(F)cc3)nc2)c1 (centres unmarked) [Example 1, N-(1-(4-fluorophenyl)ethyl)-5′-methyl-[3,3′-bipyridin]-6-amine] | ≤ 5000 | 

SMILES | EC50 (rat GPR55) [nM] | EC50 (human GPR55) [nM]
Cc1cncc(-c2ccc(N[C@H](C)c3ccc(F)c(F)c3)nc2)c1 [Example 2, (R)-N-(1-(3,4-difluorophenyl)ethyl)-5′-methyl-[3,3′-bipyridin]-6-amine] | ≤ 5000 | ≤ 50
Cc1cncc(-c2ccc(N[C@H](C)c3ccc(F)cc3)nc2)c1 [Example 3, (R)-N-(1-(4-fluorophenyl)ethyl)-5′-methyl-[3,3′-bipyridin]-6-amine] | ≤ 50 | 
CCc1cncc(-c2ccc(N[C@H](C)c3ccc(F)cc3)nc2)c1 [Example 4, (R)-5′-ethyl-N-(1-(4-fluorophenyl)ethyl)-[3,3′-bipyridin]-6-amine] | ≤ 1000 | 
C[C@@H](Nc1ccc(-c2cncc(C3CC3)c2)cn1)c1ccc(F)cc1 [Example 5, (R)-5′-cyclopropyl-N-(1-(4-fluorophenyl)ethyl)-[3,3′-bipyridin]-6-amine] | ≤ 1000 | ≤ 50
C[C@@H](Nc1ccc(-c2cncc(S(C)(=O)=O)c2)cn1)c1ccc(F)cc1 [Example 7, (R)-N-(1-(4-fluorophenyl)ethyl)-5′-(methylsulfonyl)-[3,3′-bipyridin]-6-amine] | ≤ 200 | ≤ 200
C[C@@H](Nc1ccc(-c2cncc(C(F)(F)F)c2)cn1)c1ccc(F)cc1 [Example 8, (R)-N-(1-(4-fluorophenyl)ethyl)-5′-(trifluoromethyl)-[3,3′-bipyridin]-6-amine] | ≤ 50 | 
C[C@@H](Nc1ccc(-c2cncc(Cl)c2)cn1)c1ccc(F)cc1 [Example 9, (R)-5′-chloro-N-(1-(4-fluorophenyl)ethyl)-[3,3′-bipyridin]-6-amine] | ≤ 50 | ≤ 200
Cc1cnc(C)c(-c2ccc(N[C@H](C)c3ccc(F)cc3)nc2)c1 [Example 10, (R)-N-(1-(4-fluorophenyl)ethyl)-2′,5′-dimethyl-[3,3′-bipyridin]-6-amine] | ≤ 1000 | ≤ 1000
Cc1cncc(-c2ccc(N[C@H](C)c3ccc(F)cc3)nc2)c1C [Example 11, (R)-N-(1-(4-fluorophenyl)ethyl)-4′,5′-dimethyl-[3,3′-bipyridin]-6-amine] | ≤ 1000 | ≤ 1000
C[C@@H](Nc1ccc(-c2cncc(N(C)C)c2)cn1)c1ccc(F)cc1 [Example 12, (R)-N6′-(1-(4-fluorophenyl)ethyl)-N5,N5-dimethyl-[3,3′-bipyridine]-5,6′-diamine] | ≤ 5000 | ≤ 1000
CC[S+]([O-])c1cncc(-c2ccc(N[C@H](C)c3ccc(F)cc3)nc2)c1 (stereo partly drawn) [Example 13, 5′-(ethylsulfinyl)-N-((R)-1-(4-fluorophenyl)ethyl)-[3,3′-bipyridin]-6-amine] | ≤ 5000 | ≤ 200
C[C@@H](Nc1ccc(-c2cncc([S+](C)[O-])c2)cn1)c1ccc(F)cc1 (stereo partly drawn) [Example 14, N-((R)-1-(4-fluorophenyl)ethyl)-5′-(methylsulfinyl)-[3,3′-bipyridin]-6-amine] | ≤ 5000 | ≤ 200
CCS(=O)(=O)c1cncc(-c2ccc(N[C@H](C)c3ccc(F)cc3)nc2)c1 [Example 15, (R)-5′-(ethylsulfonyl)-N-(1-(4-fluorophenyl)ethyl)-[3,3′-bipyridin]-6-amine] | ≤ 1000 | ≤ 200
C[C@@H](Nc1ncc(-c2cncc(S(C)(=O)=O)c2)cn1)c1ccc(F)cc1 [Example 25, (R)-N-(1-(4-fluorophenyl)ethyl)-5-(5-(methylsulfonyl)pyridin-3-yl)pyrimidin-2-amine] | ≤ 5000 | 
C[C@@H](Nc1cnc(-c2cncc(CC(F)(F)F)c2)cn1)c1ccc(F)cc1 [Example 53, (R)-N-(1-(4-fluorophenyl)ethyl)-5-(5-(2,2,2-trifluoroethyl)pyridin-3-yl)pyrazin-2-amine] | ≤ 5000 | 
C[C@@H](Nc1ncc(-c2cncc(CC(F)(F)F)c2)nn1)c1ccc(F)cc1 [Example 55, (R)-N-(1-(4-fluorophenyl)ethyl)-6-(5-(2,2,2-trifluoroethyl)pyridin-3-yl)-1,2,4-triazin-3-amine] | ≤ 5000 | 
C[C@@H](Nc1ccc(-c2ccc3oc(=O)n(C)c3c2)cn1)c1ccc(F)cc1 [Example 60, (R)-5-(6-((1-(4-fluorophenyl)ethyl)amino)pyridin-3-yl)-3-methylbenzo[d]oxazol-2(3H)-one] | ≤ 1000 | 
C[C@@H](Nc1ncc(-c2ccc3oc(=O)n(C)c3c2)nn1)c1ccc(F)cc1 [Example 64, (R)-5-(3-((1-(4-fluorophenyl)ethyl)amino)-1,2,4-triazin-6-yl)-3-methylbenzo[d]oxazol-2(3H)-one] | ≤ 200 | 
